# Source: patent US20260132123A1, “ABAD INHIBITOR COMPOUNDS” (UNIVERSITY COURT OF THE UNIVERSITY OF ST ANDREWS, priority 2021, published 2026)
# What was measured:
# 17β-HSD10 = target: T1, 17β-HSD10 (Homo sapiens, UniProt Q99714); assay: 17β-HSD10 (ABAD) enzyme inhibition assay, NADH oxidation read at 340 nm (primary screen and dose response); format: biochemical; details: recombinant 17βHSD10 enzyme assay; for Hill Slope / Max. Fit / Min. Fit: curve fit
# T1 construct: Histev (histidine tag with TEV site) (N, cleaved yes); made in house; host or cells: E. coli BL21-CodonPlus
# T1 sequence (Q99714 1-261): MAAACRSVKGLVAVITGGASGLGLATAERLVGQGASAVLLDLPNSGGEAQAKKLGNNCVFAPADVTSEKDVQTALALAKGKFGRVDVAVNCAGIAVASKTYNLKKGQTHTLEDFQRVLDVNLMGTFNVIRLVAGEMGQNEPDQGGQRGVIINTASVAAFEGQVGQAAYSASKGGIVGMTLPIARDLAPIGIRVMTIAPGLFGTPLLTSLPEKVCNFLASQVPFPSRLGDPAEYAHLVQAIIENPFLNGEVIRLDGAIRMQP
# Summary of the method: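 Screening used a 35 min room-temperature endpoint A340 read after compound (10 μM) and enzyme (2.5 nM, E. coli-expressed, His-tag removed) preincubated 15 min, then 100 μM NADH plus acetoacetyl-CoA added. Dose-response runs tracked absorbance kinetically 45 min; buffer pH 7.4 Tris with BSA, DTT.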
# mtsABAD HEK293 cells [1] = assay: Alamar Blue cell viability assay; format: cell-based, human; details: 50 μM compound
# Procedure: Cell viability was assessed via fluorescence change using the commercially available Alamar Blue from ThermoFisher. HEK293 cells overexpressing mts17β-HSD10 were cultured in phenol-red free media (10% FBS, 1 mM sodium pyruvate, 100 units penicillin, 0.1 mg/mL streptomycin and 2 mM L-glutamine) and seeded at a density of 10,000 cells per well (100 μL, 96 well plates). […] Treated cells were then incubated at 37° C. and CO2 (5%) for 24 hours before the assay was performed as per the manufacturer's instructions. Fluorescence was measured at 530 nm excitation and 590 nm emission using a SpectraMaxM2e spectrophotometer.
# mtsABAD HEK293 cells [2] = assay: Lactate dehydrogenase (LDH) cytotoxicity assay; format: cell-based, human; details: 50 μM compound
# Procedure: Cell cytotoxicity was assessed via the measurement of lactate dehydrogenase leakage into the culture medium using a commercially available kit from Pierce (Thermo Scientific cat no. 88953). This was carried out in accordance with the kit guidelines, with the activity of Lactate Dehydrogenase (LDH) being calculated from the change in absorbance at […] as NADH is reduced. HEK293 cells overexpressing mts17β-HSD10 were cultured in phenol-red free media (10% fetal bovine serum (FBS), 1 mM sodium pyruvate, 100 units penicillin, 0.1 mg/mL streptomycin and 2 mM L-glutamine) and seeded at a density of 10,000 cells per well (100 μL, 96 well plates). […] Treated cells were incubated at 37° C. and CO2 (5%) for 24 hours before the LDH assay was performed as per the manufacturer's instructions. Spontaneous control (water) and maximum control (lysis buffer) used in accordance with the kit guide. Absorbance was measured at 490 nm and 680 nm using a SpectraMaxM2e spectrophotometer. The measured LDH activity was used to calculate % cytotoxicity using the following equation: […]
SMILES,Max. Effect (%) (17β-HSD10),Hill Slope (17β-HSD10),Max. Fit (17β-HSD10),Min. Fit (17β-HSD10),Alamar Blue % Viability (50 μM Dose) (mtsABAD HEK293 cells [1]; listed as ESC1002206-01),LDH % Toxicity (50 μM Dose) (mtsABAD HEK293 cells [2]; listed as ESC1002206-01),EC50 (17β-HSD10),Alamar Blue % Viability (50 μM Dose) (mtsABAD HEK293 cells [1]),LDH % Toxicity (50 μM Dose) (mtsABAD HEK293 cells [2])
CC(C)CN(C(=O)c1ccccc1F)c1cccc(N(C)Cc2ccn[nH]2)c1 [ESC1002206],79%,0.93,107,0,95.609%,5.918%,–,–,–
CC(C)CN(C(=O)c1ccccc1F)c1cccc(N(C)Cc2cncs2)c1 [ESC1002208],50%,–,–,–,–,–,> 20 µM,65.577%,20.084%
CC(C)CN(C(=O)c1ccccc1F)c1cccc(N(C)Cc2ccccn2)c1 [ESC1002209],80%,0.98,104,0,–,–,5.75 µM,80.514%,5.698%
CC(C)CN(C(=O)c1ccccc1F)c1cccc(N(C)Cc2cccnc2)c1 [ESC1002210],72%,1.4,82,0,–,–,6.17 µM,93.200%,5.509%
CC(C)CN(C(=O)c1ccccc1F)c1cccc(N(C)Cc2ccncc2)c1 [ESC1002211],40%,–,–,–,–,–,> 20 µM,82.553%,5.501%
CC(C)CN(C(=O)c1ccccc1F)c1cccc(N(C)Cc2ccc(O)nc2)c1 [ESC1002212],16%,–,–,–,–,–,> 20 µM,94.278%,5.576%
CCc1ccc(CN(C)c2cccc(N(CC(C)C)C(=O)c3ccccc3F)c2)cn1 [ESC1002213],15%,–,–,–,–,–,> 20 µM,81.860%,8.010%
CC(C)CN(C(=O)c1ccccc1F)c1cccc(N(C)Cc2cn3ccccc3n2)c1 [ESC1002214],22%,–,–,–,–,–,> 20 µM,82.439%,5.902%
"CCN(C(=O)c1ccccc1F)c1cccc(N(C)Cc2cnc[nH]2)c1 [ESC1002234, N-ethyl-2-fluoro-N-[3-[1H-imidazol-5-ylmethyl(methyl)amino]phenyl]benzamide]",94%,0.96,101,−3,–,–,1.48 µM,86.98%,4.81%
"CCCC(=O)N(CC(C)C)c1cccc(N(C)Cc2cnc[nH]2)c1 [ESC1002235, N-[3-[1H-imidazol-5-ylmethyl(methyl)amino]phenyl]-N-isobutyl-butanamide]",85%,1.1,93,−3,–,–,2.95 µM,84.09%,5.54%
"CC(C)CN(C(=O)c1ccccc1F)c1ccc2c(c1)N(Cc1cnc[nH]1)CCC2 [ESC1002236, 2-fluoro-N-[1-(1H-imidazol-5-ylmethyl)-3,4-dihydro-2H-quinolin-7-yl]-N-isobutyl-benzamide]",30%,–,–,–,–,–,> 20 µM,82.69%,3.94%
CN(Cc1c[nH]cn1)c1cccc(N(CC2CCC2)C(=O)c2ccccc2F)c1 [ESC1002265],96%,1.1,99,0,–,–,0.955 µM,80.52%,4.52%
"COCCN(C(=O)c1ccccc1F)c1cccc(N(C)Cc2c[nH]cn2)c1 [ESC1002266, 2-fluoro-N-[3-[1H-imidazol-4-ylmethyl(methyl)amino]phenyl]-N-(2-methoxyethyl)benzamide]",74%,0.98,100,−4,–,–,6.46 µM,89.86%,5.22%
CC(C)OCCN(C(=O)c1ccccc1F)c1cccc(N(C)Cc2c[nH]cn2)c1 [ESC1002267],76%,0.9,103,−4,–,–,6.03 µM,89.57%,4.81%
Cc1ccsc1C(=O)N1CCC[C@H]1c1ccccc1-c1ccc(C(F)(F)F)cc1 [ESC1002314],99%,1.2,97,0,–,–,0.575 µM,87.10%,5.98%
Cc1ccsc1C(=O)N1CCC[C@H]1c1ccccc1-c1ccc(OC(F)(F)F)cc1 [ESC1002315],95%,1.1,97,0,–,–,1.15 µM,84.77%,5.91%
Cc1ccsc1C(=O)N1CCC[C@H]1c1ccccc1-c1ccc(C#N)cc1 [ESC1002316],101%,0.93,100,0,–,–,0.275 µM,80.39%,3.69%
Cc1ccsc1C(=O)N1CCC[C@H]1c1ccccc1-c1ccc(C(=O)N(C)C)cc1 [ESC1002317],96%,1,99,0,–,–,0.912 µM,83.39%,4.58%
